Source: paper PMC12372887, “Mechanism and cellular actions of the potent AMPK inhibitor BAY-3827” (Science Advances, 2025)
Read-outs that look alike come from different tables or passages of the source.

Columns and labels:
HEK293 cells = experiment: RSK signaling immunoblot in HEK293 cells; type: cell-based, human
Method: HEK293 cells (Invitrogen, R75007) were seeded at a density of 500,000 cells per well in six-well cell culture plates (Corning Incorporated Costar #3516) in Dulbecco’s modified Eagle medium (DMEM) high-glucose + GlutaMAX Supplement, pyruvate (Thermo Fisher Scientific, catalog no. 31966-021) containing penicillin G (100 U/ml), streptomycin (100 μg/ml), and 10% (v/v) FBS. Once attached, the next day, the media were changed to serum-free and the cells were starved for 16 hours followed by compound treatment with BAY-3827, BI-D1870 (MedChemExpress, #HY-10510) ± 10 μM MK-2206 dihydrochloride (MedChemExpress, #HY-10358) with 30 min incubation at 37°C followed by coincubation with […] (MedChemExpress, #HY-18739) or vehicle for additional 30 min with final assay DMSO concentration of 0.13%. All cell lines used here were tested monthly for mycoplasma and tested negative.
Following compound treatment, the cells were washed with room temperature PBS and lysed on ice with the addition of lysis buffer [50 mM tris-HCl (pH 7.5), 150 mM NaCl, 1 mM EDTA, 1 mM EGTA, 0.27 M sucrose, 1% w/v Triton X-100, 20 mM glycerol-2 phosphate disodium, 50 mM NaF, and 5 mM Na4P2O7.10 H2O] containing proteases and phosphatase inhibitors [0.5 mM phenylmethylsulfonyl fluoride (PMSF), 1 mM benzamidine HCl, leupeptin (1 μg/ml), pepstatin A (1 μg/ml), 1 μM microcystin-LR, 1 mM Na3VO4, and 1 mM DTT]. Lysates were centrifuged at 10,000g, 4°C for 10 min, and protein concentration of the supernatant was determined with the Pierce Bradford Protein Assay Kit (Thermo Fisher Scientific, #23200) and read on the Hidex Plate Reader (software version 0.5.64.0). Samples were prepared in Laemmli sample buffer (tris 200 mM, 8% SDS, EDTA 2 mM, and 40% glycerol) supplemented with 10% DTT and boiled for 5 min at 100°C. Ten micrograms of protein per sample was run on a Criterion tris-glycine polyacrylamide gel (Bio-Rad, #5678095) and transferred to a nitrocellulose membrane. For cell signaling experiments in HEK293 cells, the samples were run on a Criterion TGX stain-free precast gel (Bio-Rad, catalog no. 5678085) with transfer to a polyvinylidene difluoride membrane performed in Bio-Rad Criterion blotter (#1704071) using tris-glycine transfer buffer (Bio-Rad, #1610734) following the manufacturer’s instructions. The membranes were probed at 4°C overnight in a 4% BSA TBS-T solution containing 0.02% sodium azide with the following antibodies where appropriate: Phospho-ACC (Ser^79) (1:1000, Cell Signaling Technology, #3661S), ACC (C83B10) (1:1000, Cell Signaling Technology, #3676S), phospho-Raptor (Ser^792) (1:1000, Cell Signaling Technology, #2083S), Raptor (24C12) (1:1000, Cell Signaling Technology, #2280S), GSK3αβ (1:2000, Sigma-Aldrich, #04-903), phospho-GSK3αβ (Ser^21/9) (D17D2) (1:1000, Cell Signaling Technology, #8566S), ERK1/2 (137F5) (1:1000, Cell Signaling Technology, #4695), phospho-ERK1/2 (Thr^202/Tyr^204) (D13.14.4E) (1:1000, Cell Signaling Technology, #4370), phospho-AMPKα (Thr^172) (40H9) (1:1000, Cell Signaling Technology, #2535S), AMPKα (1:1000, Cell Signaling Technology, #2532S), anti–glyceraldehyde-3-phosphate dehydrogenase antibody (1:5000, Cell Signaling Technology, #G8795), and vinculin (1:1000, Cell Signaling Technology, #13901). Membranes were scanned using the Odyssey Fc LiCor system (exposure time, 30 s) with densitometry analysis performed using LiCor Image Studio Lite normalizing to control loading protein. Figures were made using GraphPad Prism v10.

AMPK [1] = tested on: AMPK; parameters: method as in PMID 29695504; details: 20 μM ATP; read-out: median inhibitory concentration (IC50); cited from earlier work
RSK2 = tested on: RSK2; parameters: method as in PMID 20439741; details: cited from earlier work
AMPK [2] = tested on: AMPK; parameters: method as in PMID 20439741; details: cited from earlier work
RSK1 = tested on: RSK1; parameters: method as in PMID 20439741; details: cited from earlier work
[3] = tested on: pThr172-AMPKα in U2OS cells; experiment: HTRF assay of Thr172-AMPKα phosphorylation in U2OS cells; type: cell-based, human; details: 10 μM
Method: (§1) Human osteosarcoma U2OS WT cells were obtained from John Rouse (MRC Protein Phosphorylation and Ubiquitylation Unit, University of Dundee) and were cultured in DMEM high glucose + GlutaMAX Supplement, pyruvate (Thermo Fisher Scientific, catalog no. 31966-021) containing penicillin G (100 U/ml), streptomycin (100 μg/ml), and 10% (v/v) FBS seeding with 50,000 cells per well in a 50-μl volume in culture 96-well cell culture plates (Corning Incorporated costar, #3599). The next day, the media were changed to 50 μl of serum-free media, and 50 μl of serum-free media containing BAY-3827 or BAY-974 was dispensed and left to incubate at 37°C for 30 min. […] HTRF assays using either phospho-Ser^79-ACC1 kit (Revvity, #64ACCPEG) or phospho-Thr^172-AMPK kit (Revvity, #64AMPKPEG) were performed in triplicate in HTRF 96-well low volume white plates (Revvity, #66PL96001) following manufacturer’s instructions. Sealed plates incubated overnight in darkness conditions were scanned at room temperature in Multimode Plate Reader EnVision (PerkinElmer) machine following HTRF setup recommendations for EnVision (Revvity), equipped with a top mirror LANCE/DELFIA single mirror (#412), a UV2 (TRF) 320 excitation filter (#111), emission filter APC 665 (#205), and second emission filter Europium 615 (#203), with a 2000-μs cycle and 60-μs delay, with the number of flashes set to 100 as well as for the 2nd detector. Results were viewed in EnVision Manager software (version 1.13.3009.1401) where 665/615 ratios were calculated, and data were normalized to control condition as %. All assay ratios between control lysate signal/nonspecific signal were greater than 2 as expected of a successful assay following the manufacturer’s instructions. Data were visualized in GraphPad Prism v10.

[4] = tested on: AMPKα1α2+/+ control primary hepatocytes; experiment: Lipogenesis assay ([14C]-acetate incorporation into fatty acids); type: cell-based, mouse
Method: (§2) Mouse hepatocytes were isolated by collagenase perfusion as previously described ([47]). Hepatocytes were seeded in medium Eagle-199 (MEM-199) (#41150, Thermo Fisher Scientific) containing penicillin G (100 U/ml), streptomycin (100 μg/ml), and 10% (v/v) fetal bovine serum (FBS). Hepatocytes were left for attachment (3 to 4 hours) and serum-starved overnight at 37°C with 5% CO2 in MEM-199 supplemented with penicillin G (100 U/ml), streptomycin (100 μg/ml), 10 nM insulin, and 100 nM dexamethasone. […] Cells were then harvested in 0.5 ml of phosphate-buffered saline (PBS), transferred into 1 ml of 40% KOH and 2 ml of methanol followed by 1-hour incubation at 80°C. Lipids were […] by acidifying the samples in 37% HCl and extracted with petroleum ether. Extracts were allowed to evaporate to dryness and then dissolved in Ultima Gold scintillation fluid for determination of [^14C]-acetate incorporation into lipids.

[5] = tested on: AMPKα1α2−/− DKO primary hepatocytes; experiment: as above; type: cell-based, mouse
Method: as §2

[6] = tested on: pSer79-ACC1 in U2OS cells; experiment: HTRF assay of Ser79-ACC1 phosphorylation in U2OS cells; type: cell-based, human; details: 10 μM
Method: as §1

119 kinases = tested on: 119 kinases; parameters: method as in PMID 21740966; details: of 119 kinases, 1 μM; cited from earlier work

CCCCCCCCCCCCCC(=O)O[C@@H]1[C@@H](C)[C@@]2(O)[C@@H](C=C(CO)C[C@]3(O)C(=O)C(C)=C[C@@H]23)[C@@H]2C(C)(C)[C@]12OC(C)=O [PMA, phorbol 12-myristate 13-acetate]
pERK1/2 and pGSK3αβ levels (HEK293 cells; 0.1 μM, MK-2206–treated conditions): robustly increased

CNC(=O)c1ccccc1Oc1nc(Nc2cc(OC)c(OC)c(OC)c2)ncc1Br [SBI-0206965]
IC50 (AMPK [1]): 160 nM

Cc1nc(Nc2n[nH]c3c2CN(C(=O)N[C@H](CN(C)C)c2ccccc2)C3(C)C)c2sccc2n1 [PF-03758309]
IC50 (RSK2): 2 nM | IC50 (AMPK [2]): 1 nM | IC50 (RSK1): 2 nM

NC1(c2ccc(-c3nc4ccn5c(=O)[nH]nc5c4cc3-c3ccccc3)cc2)CCC1 [MK-2206]
basal pGSK3αβ (HEK293 cells; 10 μM): reduced

O[C@@H]1CO[C@H]2[C@@H]1OC[C@H]2Oc1nc2nc(-c3ccc(-c4ccccc4)cc3)c(Cl)cc2[nH]1 [MK-8722]
pThr172-AMPK versus vehicle [3]: significant increase | suppression of lipogenesis ([4]; compound alone, 10 μM): > 80% | effect on lipogenesis [5]: no effect | pSer79-ACC1 versus vehicle [6]: significant increase

CC(C)CCN1c2nc(Nc3cc(F)c(O)c(F)c3)ncc2N(C)C(=O)C1C (stereo not drawn) [BI-D1870]
PMA-stimulated pGSK3αβ (surrogate of RSK activity) (HEK293 cells; 10 μM, in the presence of MK-2206 (10 μM)): inhibited to the same extent | ACC1 phosphorylation (HEK293 cells; serum-starved HEK293, 1 and 10 μM): no effect

c1cc(-c2cnn3cc(-c4ccc(OCCN5CCCCC5)cc4)cnc23)ccn1 [compound C]
restoration of MK-8722–inhibited lipogenesis ([4]; 25 μM, + MK-8722 (10 μM)): 10% | number of kinases inhibited more potently than AMPK (119 kinases): 34 | IC50 (AMPK [1]): […]
